The record followed here is PubChem BioAssay (NCI).

Values joined by “and” are separate entries in the source; they are usually repeats but may differ in a detail not shown here. Equal entries are not always repeated.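 Grown in 96-well plates, cells were treated for 48 hours with each compound at five concentrations. Insufficient inhibition: endpoint recorded as highest concentration tested. GI50 marks 50% less growth. TGI denotes the concentration required for complete inhibition of growth.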

What all share (test): NCI anticancer screen, dose series, 48 h
Test [1] concerns HT29 colon.
For test [2], the system named is RXF 393 renal.
For test [3], the system named is UACC-257 melanoma.
Test [4] has as its system HCT-116 colon.
Test [5] concerns A498 renal.
Test [6] has as its system TK-10 renal.
Test [7] relates to SK-MEL-5 melanoma.
In test [8] the test system is MDA-MB-231 breast.
Test [9] deals with RPMI-8226 leukemia.
Test [10] relates to SF-295 CNS.
Test [11] concerns NCI-H23 lung.
Test [12] concerns UACC-62 melanoma.
Test [13] deals with SW-620 colon.
Test [14] concerns 786-0 renal.

On to `Cc1nc2c(o1)C(=O)c1ccccc1/C2=N/c1ccccn1`, for which the TGI in [1] was 41.3 µM; in [2], more than 100 µM; in [3], 26.9 µM; in [4], 41.8 µM; in [5] it was 30.7 µM; in test [6] it was more than 100 µM. The TGI was 30.4 µM in [7]; 69.3 µM in test [8]; more than 100 µM in test [9]; more than 100 µM in test [10]; 23.6 µM in test [11]; 34.9 µM in test [12]. The results for the TGI in test [13] and in [14] were 31.6 µM and 58.7 µM, respectively.
In the case of `O=C(Oc1ccccc1)c1cc2cc(CCl)ccc2oc1=O`, the TGI is more than 100 µM in test [1]; 27.9 µM in test [2]; 27.5 µM in test [3]; more than 100 µM in test [4]; 33.9 µM in test [5]; 43.8 µM in [6]. The TGI in test [7] is 27.5 µM; in test [8] it was 82 µM; in [9], more than 100 µM; in [10], 98.4 µM; in [11], 42 µM; in [12], 27.5 µM. Further, the TGI in test [13] was more than 100 µM; in [14], 64.4 µM.
On to `CCc1n[nH]c(=O)n1N1C(=O)C2CC=CCC2C1=O` (configuration not stated), for which the TGI in test [1], in [2], in test [3], in test [4], in [5] and in test [6] was more than 100 µM each time. Besides, the TGI in [7], in test [8], in test [9], in test [10], in [11] and in test [12] was more than 100 µM in each case. The TGI in test [13] and in test [14] was more than 100 µM throughout.
For the compound `CCOP(=O)(/C=C\n1cnc2c(=O)n(C(C)=O)c(N)nc21)OCC`, the TGI in [1], in test [2], in test [3], in [4], in test [5] and in [6] was more than 100 µM in each case. In addition, the TGI in [7], in test [8], in test [9], in [10], in test [11] and in [12] was more than 100 µM in each case. Further, the TGI in [13] and in [14] was more than 100 µM each time.
For the compound `COc1cc([C@@H]2c3cc4c(cc3[C@@H](NCCNCCO)[C@H]3COC(=O)[C@H]23)OCO4)cc(OC)c1O`, the TGI is more than 29.9 µM in test [1]; 8.18 µM and 4.94 µM in [2]; > 30.5 µM and 39.9 µM in test [3]; 44 µM and 32.9 µM in [4]; 19.9 µM in test [5]; 33.8 µM and 39.3 µM in test [6]. For the same compound, the TGI in test [7] is 5.14 µM and 6.05 µM; in test [8], 21.6 µM; in test [9] it was 3.84 µM; in test [10], > 29 µM and 7.12 µM; in [11], 9.94 µM and 10.8 µM; in test [12], 5.34 µM and 3.61 µM. In addition, the TGI in [13] was more than 100 µM; in test [14], 3.02 µM and 3.48 µM. Besides, the GI50 in [9] is 0.46 µM and 0.522 µM; in test [10], 1.61 µM and 0.719 µM.
As to `CC(=O)O[C@H]1C[C@]2(C)C(CCC3O[C@@]32C)[C@@]2(CC(c3ccoc3)OC2O)[C@@H]1C` (some centres not stated), the TGI in [1], in [2], in test [3], in test [4], in test [5] and in test [6] was more than 100 µM in each case. The TGI is more than 100 µM in test [7]; more than 100 µM in test [8]; 81.1 µM in test [9]; more than 100 µM in test [10]; more than 100 µM in test [11]; more than 100 µM in [12]. The TGI in test [13] and in test [14] was more than 100 µM each time.
Regarding `c1ccc(C2SCC3=Nc4ccccc4CN32)cc1` (configuration not stated), the TGI was 50.7 µM in test [1]; 38.9 µM in test [2]; more than 100 µM in [3]; 51.9 µM in test [4]; more than 100 µM in test [5]; more than 100 µM in [6]. Besides, the TGI in test [7] was 32.2 µM; in [8], more than 100 µM; in test [9] it was more than 100 µM; in [10] it was 70.8 µM; in [11], 62.3 µM; in test [12], more than 100 µM. For the same compound, the TGI in test [13] and in test [14] was more than 100 µM throughout.
Consider `O=C(/C=C/c1ccc(O)c(O)c1)OCCc1cccc2ccccc12`, for which the TGI in test [1] was determined as 27.5 µM; in [2], 25.1 µM; in [3], 28.2 µM; in test [4], 14.6 µM; in test [5], 24.8 µM; in test [6] it was 13.6 µM. In addition, the TGI is 5.31 µM in test [7]; 7.56 µM in test [8]; 20.5 µM in [9]; 17.9 µM in test [10]; 14 µM in test [11]; 15 µM in test [12]. The TGI in [13] came to 18.9 µM; in test [14], 12.7 µM.
On to `CCCN1C(=O)CCC2=C1CCc1c2ccc(Cl)c1Cl`, for which the TGI is more than 100 µM in test [1]; 50.5 µM in test [2]; more than 100 µM in test [3]; more than 100 µM in [4]; 33.2 µM in [5]; 49.5 µM in test [6]. Further, the TGI is 60.4 µM in [7]; 48.7 µM in test [8]; more than 100 µM in [9]; more than 100 µM in test [10]; more than 100 µM in test [11]; 5.44 µM in [12]. Besides, the TGI in test [13] and in test [14] was more than 100 µM in each case.
Turning to `O=C(CN1CCN(C(=O)OCc2ccccc2)CCN(CC(=O)N2CCCCC2)CCN(C(=O)OCc2ccccc2)CC1)N1CCCCC1`, the TGI amounted to 28.6 µM in [1]; 39.1 µM in test [2]; 9.75 µM in test [3]; 18.5 µM in test [4]; 47.1 µM in test [5]; 26.5 µM in [6]. In addition, the TGI is 19.2 µM in test [7]; 33.7 µM in test [8]; 37.3 µM in test [9]; 41.1 µM in test [10]; more than 100 µM in [11]; 38.8 µM in [12]. The TGI in [13] was more than 53.5 µM; in [14] it was more than 45.9 µM.
